# Assay results: patent publication US20170182031A1, “REDUCING DRUG LIKING IN A SUBJECT” (Purdue Pharma, priority 2014, published 2017)
# Read-outs that look alike come from different tables or passages of the source.
# How the values were obtained:
# [1] = cited from earlier work
compound,measurement,setting,value
C=CCN1CC[C@]23c4c5ccc(O)c4O[C@H]2C(=O)CC[C@@]3(O)[C@H]1C5 [naloxone],Time by which mean plasma naloxone concentration was BLQ,naloxone 1.875 μg/kg IV,≤ 15 min
same,Time by which mean plasma naloxone concentration was BLQ,naloxone 15 μg/kg IV,≤ 120 min
same,Time of maximum mean plasma naloxone concentration,"post-infusion, each treatment",5 min
same,oral bioavailability,[1],< 3%
